US20210244743A1 (priority 2020, published 2021)

Key:
[1] = in vitro; conditions: African green monkey
[2] = tested on: SARS-CoV-2; assay: SARS-CoV-2 viral transcript levels by quantitative real-time PCR in Vero E6 cells; type: cell-based; conditions: for EC50: Severe acute respiratory syndrome coronavirus 2, Vero C1008, Vero E6 cells, compound added 3 hours after virus (100 TCID50), assayed 48 hours later, read-out: EC50, viral transcript copy number
[3] = tested on: SARS; assay: microbe, parasite or virus in culture; type: cell-based, SARS-CoV; conditions: Severe acute respiratory syndrome coronavirus, Vero, read-out: average EC50 (50% virus inhibitory concentration)
[4] = tested on: MERS; assay: microbe, parasite or virus in culture; type: cell-based, MERS-CoV; conditions: Middle East respiratory syndrome-related coronavirus, Vero, read-out: average EC50 (50% virus inhibitory concentration)

| SMILES | CC50 [1] | selectivity index (CC50/EC50) ([2]; SARS-CoV-2, Vero E6 cells) | EC50 [2] | EC50 [3] | EC50 [4] |
| --- | --- | --- | --- | --- | --- |
| Cc1cccc(/C=N/Nc2cc(N3CCOCC3)nc(OCCc3ccccn3)n2)c1 [apilimod dimesylate] | 20 µM | 9.1 | 2.2 µM | 3.7 µM | 13.8 µM |
| CCC(CC)COC(=O)[C@H](C)N[P@](=O)(OC[C@H]1O[C@@](C#N)(c2ccc3c(N)ncnn23)[C@H](O)[C@@H]1O)Oc1ccccc1 [remdesivir] | 205 µM | – | 0.7 µM | – | – |
